Test results as given in PubChem BioAssay AID2305 (GlaxoSmithKline (GSK), 2010).
pIC50: −log10 of the molar value.

What follows are compounds tested on P. falciparum 3D7 growth, pLDH absorbance (assay: P. falciparum 3D7 growth inhibition, dose response, strain 3D7 (AID 2305)).
With `c1cc(CN2CCN(c3ccncc3)CC2)cc(-c2ccc(-c3nc4ccccc4[nH]3)s2)c1` the pIC50 was 6.82. `O=S(=O)(NCCN1CCCC1)c1ccc(-c2cccc(CNC3Cc4ccccc4C3)c2)cc1` was tested, and the pIC50 was 6.21. In the case of `O=C1c2ccccc2CCC1CCN1CC=C(c2c[nH]c3ccccc23)CC1` (centres undefined), the pIC50 was 6.15. For `NC(=O)COc1cccc2c1CCN(CCN1CCC(NC(=O)c3ccc(-c4ccc(Cl)cc4)cc3)CC1)C2`, the pIC50 was 6.08. `CCOc1ccccc1CNc1nccc(NCc2ccccc2OC)n1` showed a pIC50 of 5.83. In the case of `Nc1nc(N)c2c(ccc3c2ccn3CCCF)n1`, the pIC50 was 6.82. `CN(C)CCNCc1cccc(-c2cccc(-c3nc4ccccc4[nH]3)c2)c1` was tested, and the pIC50 was 6.11. `COc1ccc(OC)c2c1CCN(CCN1CCC(C(=O)Nc3ccc(C(=O)Nc4ccc(Cl)cc4)cc3)CC1)C2` gave a pIC50 of 6.24. `NCC1CCCN1Cc1ccc(-c2cccc(-c3nc4ccc(C(F)(F)F)cc4[nH]3)c2)cc1` (centres undefined) was tested, and the pIC50 was 6.08. Compound `O=C(/C=C/c1ccc(Cl)c(Cl)c1)NC1CCC(N2CCC(c3c[nH]c4ccccc34)CC2)CC1` (centres undefined) has a pIC50 of 6.06. For `CCOC(=O)c1[nH]c(-c2ccc(Cl)cc2)nc1NC(=S)NCCCN1CCOCC1`, the pIC50 was 6.06. Work on `CC(CCCCC(=O)Nc1ccc(CC(C)NCCc2cccc(Cl)c2)cc1)NCCc1cccc(Cl)c1` (centres undefined) yielded a pIC50 of 6.00. `COc1nc2c(CCN3CCC(NCc4ccc5c(c4)NC(=O)CO5)CC3)c(Cl)cnc2cc1F` showed a pIC50 of 6.11. `O=C(NCCc1ccccc1)N(Cc1ccccc1-c1cccc(CNCc2ccc3c(c2)OCO3)c1)C1CCN(Cc2ccccc2)CC1` was tested, and the pIC50 was 6.00. `COc1cccc(-c2ccc3c(-c4ccc(F)cc4)cnc(N)c3c2)c1` showed a pIC50 of 6.09. For `COc1ccccc1CCNc1ncnc2c1[nH]c1ccc(F)cc12`, the pIC50 was 6.08. Compound `S=c1nc(-c2ccccc2)n2ccsc2n1` has a pIC50 of 6.74. Work on `CCn1c(-c2nonc2N)nc2c(-c3cccc(NC(=O)Nc4ccc5c(c4)CCC5)c3)ncc(OCCCN)c21` yielded a pIC50 of 6.11. `Cc1cc2nc(/N=C(\N)NC(=O)NC3CCCCC3)nc(C)c2cc1C` showed a pIC50 of 6.12. `O=C(/C=C/c1cccc(Cl)c1)NCCCCCN1CCC(c2c[nH]c3ccccc23)CC1` showed a pIC50 of 6.00. `Cc1cnc(CCNC(=O)c2cc(-c3ccc(Cl)cc3)cs2)[nH]1` gave a pIC50 of 6.62. Compound `Nc1nc2c(cnn2CCCCCCCP(=O)(O)O)c(=O)[nH]1` has a pIC50 of 6.33. Work on `Cc1cccc2[nH]c(-c3ccc(-c4cccc(NC(=O)NCc5ccc(F)cc5)c4)cc3)nc12` yielded a pIC50 of 6.82. Work on `COc1cc(Cc2cnc(N)nc2N)cc(OC)c1OCCCCC(=O)O` yielded a pIC50 of 5.94. `CN(c1ccc2c(c1)nc(NC(=O)C1(c3cc(F)ccc3F)CC1)n2C)c1ccnc(Nc2cccc(CS(C)(=O)=O)c2)n1` gave a pIC50 of 5.96. Work on `Cc1ccccc1Nc1cc(Nc2ccccc2C)c2ccccc2n1` yielded a pIC50 of 6.11. Work on `CC(C)(CN1CCCC1)CN(Cc1ccc(-c2ccc(C(F)(F)F)cc2)cc1)C(=O)Cn1c(CCc2cccc(F)c2F)nc(=O)c2ccccc21` yielded a pIC50 of 6.10. Compound `COCCCNC(=O)C1CCN(C(c2ccc(Cl)cc2)c2ccc(Cl)cc2)CC1` has a pIC50 of 6.04. `Cc1ccc(CNC(=O)[C@H](Cc2ccccc2)Nc2cc(C)nc(NCc3ccccc3C)n2)cc1` gave a pIC50 of 6.10. Compound `COc1ccc(CNC2CCN(C)CC2)cc1-c1ccc(S(=O)(=O)NC2CCC2)c(F)c1` has a pIC50 of 6.08. For `c1ccc(-c2cc(NCCCCNc3cc(-c4ccccc4)nc4ccccc34)c3ccccc3n2)cc1`, the pIC50 was 6.89. For `NCC1CCCN1Cc1cccc(-c2cccc(-c3nc4ccc(F)cc4[nH]3)c2)c1` (centres undefined), the pIC50 was 6.09. With `CCc1cc([C@H]2O[C@@H](n3cnc4c(NCC(c5ccccc5)c5ccccc5)nc(NCCNc5ccccn5)nc43)[C@H](O)[C@@H]2O)on1` the pIC50 was 6.05. Work on `CN(C)CCNc1ncnc2c1[nH]c1ccc(Br)cc12` yielded a pIC50 of 6.13. `COc1ccc(C2CCN(CCN3CCC(NC(=O)c4ccc(-c5cccc(C(F)(F)F)c5C(F)(F)F)cc4)CC3)CC2)c(OC)c1` showed a pIC50 of 6.38. With `COc1ccc(CC(=O)NC(CCCN2CCC(c3ccccc3)CC2)c2ccc(Cl)c(Cl)c2)cc1OC` (centres undefined) the pIC50 was 5.98. `CCn1c(-c2nonc2N)nc2c(-c3ccccc3)ncc(OCCCCNCCc3ncc[nH]3)c21` gave a pIC50 of 6.07. Compound `Cc1noc(=O)c2ccc(NC(=O)C(O)(CSc3ccccc3)CC(C)C)cc12` (centres undefined) has a pIC50 of 6.14. `O=C(Nc1ccc(C(=O)OCC2CCCCC2)cc1)N[C@@H](Cc1ccc(O)cc1)C(=O)NC1CCN(Cc2ccc(O)cc2)C1` (some centres undefined) was tested, and the pIC50 was 6.06. In the case of `Cc1cc(NC2CCN(CC3CCCCC3)CC2)nc(Nc2ccccc2Cl)n1`, the pIC50 was 6.19. With `CCN(CC)CCN(Cc1ccc(-c2ccc(C(F)(F)F)cc2)cc1)C(=O)Cn1c(CCc2ccc(F)cc2)nc(=O)c2sccc21` the pIC50 was 6.17. `NS(=O)(=O)c1cccc(N=Cc2c(O)[nH]c3ccc(S(=O)(=O)Cc4c(Cl)cccc4Cl)cc23)c1` gave a pIC50 of 6.14. For `CCOc1ccccc1CCNCC1CCN(CC2CCCCC2)CC1`, the pIC50 was 6.11. For `COc1ccc2nccc(N3CCC(NCCNS(=O)(=O)c4ccc5c(c4)NC(=O)CS5)C3)c2n1` (centres undefined), the pIC50 was 6.05. `CCOc1cc(C(=O)NCCN(CC)c2cccc(C)c2)ccc1-c1nc2ccc(Cl)cc2[nH]1` showed a pIC50 of 6.09. In the case of `COc1cc2nc(NCCc3cccc(Cl)c3)nc(NCc3ccccc3)c2cc1OC`, the pIC50 was 6.92. For `O=C(NC1CCC(CN2CCC(c3c[nH]c4ccccc34)CC2)CC1)c1cnn(-c2ccccc2)c1-c1ccccc1Cl` (centres undefined), the pIC50 was 6.74. `COc1cc(CNC[C@@H](O)[C@H](Cc2ccccc2)NC(=O)c2cc(C3CCCC3)cc(N3CCCS3(=O)=O)c2)cc(OC)c1` was tested, and the pIC50 was 5.91. With `CN1CCC(C(=O)N(Cc2ccc(-c3ccc(CNCCc4ccc(S(C)(=O)=O)cc4)cn3)cc2)C2CCN(Cc3ccccc3)CC2)CC1` the pIC50 was 6.17. In the case of `COc1cccc(NC(=O)c2cc([N+](=O)[O-])ccc2NC(=O)CN2CCc3ccccc3C2)c1`, the pIC50 was 6.23. `CNC(=O)c1cncc(/C=C/c2ccccc2S(N)(=O)=O)c1` showed a pIC50 of 6.16. In the case of `Nc1nccc2ccc(-c3ccc4nccn4c3)cc12`, the pIC50 was 7.00. For `CCOC(=O)c1cn(CC)c2cc(N3CCCCC3)c(F)cc2c1=O`, the pIC50 was 6.89. For `COc1ccc(C2CCN(CCCCNC(=O)c3ccc(NC(=O)c4ccc(Cl)cc4)cc3)CC2)c(OC)c1`, the pIC50 was 6.24. In the case of `N#Cc1cccc(Nc2cc(C(F)(F)F)nc(Nc3ccccc3)n2)c1`, the pIC50 was 5.84. In the case of `Cc1cccc2[nH]c(-c3ccc(-c4cccc(CNCCc5ccncc5)c4)s3)nc12`, the pIC50 was 6.85. In the case of `O=c1cc(NCCCN(Cc2cc3c(Cl)cc(Cl)cc3[nH]2)Cc2cc3c(Cl)cc(Cl)cc3[nH]2)[nH]c2ccccc12`, the pIC50 was 6.92. `O=C(CCCCCNC(=O)c1ccc(O)c(-c2ccc(Cl)c(Cl)c2)c1)NCCN1CCCCC1` was tested, and the pIC50 was 6.05. `CN(C)[C@@H]1C(=O)C(C(N)=O)=C(O)[C@@]2(O)C(=O)C3=C(O)c4c(O)ccc(C#Cc5ccccn5)c4C[C@H]3C[C@@H]12` showed a pIC50 of 6.12. In the case of `CN1CCC(c2nc(N)no2)C1` (centres undefined), the pIC50 was 6.01. In the case of `CN1CCN(CC(O)CNC(=O)Nc2ccc(Br)cc2)CC1` (centres undefined), the pIC50 was 6.82. `O=C(Nc1cccc(Cl)c1Cl)N[C@H]1CCN(CCCCCNC(=O)[C@@H]2C[C@H]2c2ccc(Cl)c(Cl)c2)C1` was tested, and the pIC50 was 5.89. Compound `CN1CCN(CCCN(Cc2csc(-c3ccc(CNCc4ccccc4)cc3)n2)S(=O)(=O)c2ccccc2)CC1` has a pIC50 of 6.11. For `Cc1ccc(Nc2nccc(NCC(O)c3cccc(C)c3)n2)cc1` (centres undefined), the pIC50 was 5.99. With `Cc1ccc(F)c(C(=O)Nc2cccc(-c3nn4ccccc4c3-c3ccnc(Nc4cccc(F)c4)n3)c2)c1F` the pIC50 was 5.98. In the case of `COc1ccc2nc(-c3ccccc3)cc(NCCCNc3cc(-c4ccccc4)nc4ccc(OC)cc34)c2c1`, the pIC50 was 6.92. Work on `Cc1cc(N(CCCN(C)C)Cc2cc(F)cc(F)c2)nc(Nc2ccc(Cl)cc2)n1` yielded a pIC50 of 6.27. In the case of `COc1ccc(C=CC(=O)N2CCC(CN3CCC(c4c[nH]c5ccccc45)CC3)CC2)cc1OC`, the pIC50 was 5.97. `C=C[C@H]1CN(CCCCCCC)CC[C@H]1CCN(C)c1ccnc2ccc(OC)cc12` showed a pIC50 of 6.35. `CN(C)c1ccc(C=C2SC(=Nc3ccccc3)N(c3ccccc3)C2=O)cc1[N+](=O)[O-]` showed a pIC50 of 6.11. `COC(=O)C1=C(C)NC2=C(C(=O)CC(c3ccc(OC)c(OC)c3)C2)C1c1cccc(O)c1` (centres undefined) was tested, and the pIC50 was 6.14. `Cc1ccc2[nH]c3c(NCCN(C)C)ncnc3c2c1` gave a pIC50 of 6.08. `O=c1cc(NCCCNCc2ccc(C(F)(F)F)cc2F)[nH]c2ccccc12` was tested, and the pIC50 was 6.02. Compound `O=C(c1cc2ccccc2o1)N1CCc2cc3nccc(N4CCN5CCC[C@H]5C4)c3cc21` has a pIC50 of 6.09. `Cc1nc(-c2cccc(Nc3nccc(NCC(O)c4ccccc4C(F)(F)F)n3)c2)cs1` (centres undefined) showed a pIC50 of 6.08. `COCCCNc1nc2cc(OC)c(OC)cc2c2nc(-c3ccccc3)nn12` showed a pIC50 of 6.72. Work on `O=S(=O)(Nc1cccc(F)c1CNCc1ccccn1)c1ccc(Cl)c(Cl)c1` yielded a pIC50 of 6.05. `C[C@@H]1CN(c2cnn(C/C=C/c3ccc(NC(=O)c4ccc([N+](=O)[O-])cc4)cc3)c(=O)c2Cl)C[C@H](C)N1` was tested, and the pIC50 was 6.15. `CCc1cc(CNC2CCN(CCc3c(F)cnc4ccc(OC)nc34)CC2)cc2c1OCCO2` was tested, and the pIC50 was 6.59. `Nc1nc(N)c2c(ccc3nccc32)[nH]1` was tested, and the pIC50 was 5.97. `CC[C@H]1CN2CC[C@@H]1C[C@H]2[C@H](O)c1cc(-c2ccccc2)nc2ccc(O)cc12` gave a pIC50 of 6.72. In the case of `CC[C@H](C)CNC(=O)c1cncc(-c2ccc(CN(C)C3CCN(C)CC3)cc2)c1`, the pIC50 was 6.00. In the case of `Nc1nc(N)c2c(ccc3c2ccn3Cc2ccc(-c3ccccc3)cc2)n1`, the pIC50 was 7.30. With `O=C(NCCCCN1CCC(c2ccc(C(F)(F)F)cc2C(F)(F)F)CC1)c1ccc(NC(=O)c2ccc(Cl)cc2)cc1` the pIC50 was 6.21. `COc1cc(F)c2ncc(Cl)c([C@H](O)CN3CCC(NCc4ccc5c(n4)NC(=O)CO5)CC3)c2c1` was tested, and the pIC50 was 6.80. For `CC(C)(Oc1ccc(Cl)cc1)C(=O)NCCC1CCN(CCCCCNC(=O)/C=C/c2ccc(Cl)c(Cl)c2)CC1`, the pIC50 was 6.03. In the case of `O=c1ccc(CNc2nc(NCCc3ccccc3)nc3cc(Cl)ccc23)c[nH]1`, the pIC50 was 6.52. Compound `Cc1cccc2[nH]c(-c3ccc(-c4ccc(CN5CCCCC5)cc4)cc3)nc12` has a pIC50 of 6.23. `CCN1CCN(c2cc(C)c3cc(NC(=O)c4cccc(OC)c4)ccc3n2)CC1` was tested, and the pIC50 was 6.10. With `Cc1cccc(CCNC(=O)c2cc(Br)cc(N3CCN(c4ccncc4)CC3)c2)c1` the pIC50 was 6.06. With `Fc1cc(Cl)ccc1Nc1ccnc2cc(-c3ccc(CN4CCOCC4)o3)ccc12` the pIC50 was 6.19. `CCN(CC)C(=NCCCCCCN=C(NC(N)=NCc1ccc(Cl)cc1)N(CC)CC)NC(N)=NCc1ccc(Cl)cc1` showed a pIC50 of 6.64. For `Cc1c(CC(=O)N(C)C2CCN(CCCCCNC(=O)/C=C/c3ccc(Cl)c(Cl)c3)CC2)sc2ccc(Cl)cc12`, the pIC50 was 5.94. `O=C(NCc1cc2c(cc1Cl)OCO2)c1ccc(CNC2CCN(Cc3ccccc3)CC2)cc1` gave a pIC50 of 6.08.
